Laboratory results reported in US10617664B2, “Brain derived PPARα ligands” (Rush University Medical Center, priority 2015, dated 2020).
Positions count from the first letter of the chain named.

Experiments:
[1] = target: T1, PPARα LBD (Homo sapiens, UniProt Q07869); assay: TR-FRET PPAR-alpha coactivator assay (Lanthascreen); type: biochemical; settings: curve fit FIG. 13
T1 construct: GST-tagged recombinant PPARα LBD protein; purchased PV4684
T1 sequence (Q07869 239-466 limits assumed): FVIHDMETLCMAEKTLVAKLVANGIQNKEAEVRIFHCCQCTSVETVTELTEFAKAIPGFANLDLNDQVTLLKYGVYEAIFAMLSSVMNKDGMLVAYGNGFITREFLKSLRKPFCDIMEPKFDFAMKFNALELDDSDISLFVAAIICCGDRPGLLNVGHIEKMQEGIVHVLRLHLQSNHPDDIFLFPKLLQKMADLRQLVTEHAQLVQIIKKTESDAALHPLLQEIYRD
Procedure: TR-FRET assay was performed using Lanthascreen TR-FRET PPAR-alpha coactivator assay kit (Cat # PV4684). In this assay, different doses of statin drugs were incubated with GST-tagged recombinant PPARα LBD protein, Terbium (Tb)-tagged anti GST antibody and Fluorescein (FL)-tagged PGC1α as directed in the manufacturer's protocol. The entire reaction was set up in corning 384 well plates by an automated robotic injector. Each plate was centrifuged, incubated in a dark place for 30 mins, and then analyzed “molecular devices analyst” machine equipped with dichroic mirror. The excitation wavelength and emission wavelength were set at 340 nm and 540 nm wavelength respectively.

[2] = target: T2, Y464D-PPARα (Mus musculus, UniProt P23204, Y464D); assay: Thermal shift assay, Y464D-PPARα with ligands; type: binding
T2 construct: the entire mouse GFP-Ppara gene (GFP-FLPpara) and three different mutated genes were cloned; GFP; made in house; host or cells: not clearly stated (lentivirus packaged in HEK293FT cells)
T2 sequence (P23204 1-468 Y464D): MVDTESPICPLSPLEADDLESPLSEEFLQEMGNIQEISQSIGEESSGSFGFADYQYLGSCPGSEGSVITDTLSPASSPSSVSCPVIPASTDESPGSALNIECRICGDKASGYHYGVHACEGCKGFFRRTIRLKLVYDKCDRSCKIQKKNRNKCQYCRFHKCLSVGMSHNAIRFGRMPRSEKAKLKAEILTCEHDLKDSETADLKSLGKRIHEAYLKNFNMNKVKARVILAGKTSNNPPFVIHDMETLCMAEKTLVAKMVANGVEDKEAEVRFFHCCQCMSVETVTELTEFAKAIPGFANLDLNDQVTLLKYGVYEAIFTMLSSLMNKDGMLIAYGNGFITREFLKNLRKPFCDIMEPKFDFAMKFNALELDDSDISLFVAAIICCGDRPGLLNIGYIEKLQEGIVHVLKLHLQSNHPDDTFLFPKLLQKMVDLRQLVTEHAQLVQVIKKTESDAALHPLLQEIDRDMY
Procedure: (§1) Lentivirus-mediated de novo expression studies were performed, where wild type full-length (GFP-FLPpara) was overexpressed and three different LBD-mutated PPARα (GFP-Y314D, GFP-Y464D and GFP-Y314D/Y464D Ppara) recombinant proteins (FIG. 9D) were expressed in neurons followed by binding analyses with three endogenous ligands. Briefly, site directed mutagenesis was performed in the mouse PPARα with Y314 and Y464 residues replaced separately or together with aspartate (D). After that, the entire mouse GFP-Ppara gene (GFP-FLPpara) and three different mutated genes were cloned in the pLenti6/V5-TOPO lentiviral expression vector (FIG. 3D), packaged in lentivirus particle with HEK293FT cells, purified full length and mutated PPARα proteins in a GFP-affinity column, and finally thermal shift assays were performed in order to analyze their conformational stability. […] After 48 h of transduction, the cells were homogenized, passed through GFP-affinity column, eluted, fractionated with chloroform-methanol, and finally analyzed by GC-MS for the detection of ligands. […] On the other hand, mutation of the Y464 completely knocked down the ligand binding affinity as we observed profound loss of ligand binding in both lenti-GFP-Y464D-Ppara (FIG. 3K, FIG. 9K) and lenti-GFP-Y314D/Y464D-Ppara (FIG. 3L, FIG. 9L)-transduced Ppara-null neurons. Throughout these analyses, we used 2,4-bis (α, α-dimethyl benzyl) phenol as an internal standard (Supplementary FIG. 5A-F). We normalized peak area of different ligands with that of internal standard and then quantified the binding affinity of these ligands with different construct of PPARα by peak integration statistics (Table 1).
(§2) Thermal shift assays were performed in Applied Biosystems 7500 standard real-time thermal cycler machine with commercially available thermal shift dye kit (Life technologies; Cat #4461146). For each reaction, purified protein (0.5 μg to 1 μg) was added to 18 μL of thermal shift buffer provided with the kit, and 1-2 μL of dye. […]

[3] = target: T3, PPARα (Mus musculus, UniProt P23204); assay: Thermal shift assay, full length PPARα with ligands; type: binding; settings: full length protein with ligand; protein only x=45.96321
T3 construct: GFP; made in house; host or cells: not clearly stated (lentivirus packaged in HEK293FT cells)
T3 sequence (P23204 1-468): T2 sequence (P23204 1-468 Y464D) with D464Y
Procedure: as §1, §2

| Structure (SMILES) | EC50 [1] | effect on Tm of Y464D-PPARα [2] | x at y=50 of thermal shift curve (melting temperature) [3] |
| --- | --- | --- | --- |
| CCCCCCCCCCCCCCCC(N)=O [HEX, hexadecanamide] | 4.36 µM | did not alter the Tm | 59.2835 |
| CCOC(=O)C(C)(C)C(C)O (stereo not drawn) [HMB] | 31.6 µM | did not alter the Tm | 58.49 |
| CCCCCCCCC=CCCCCCCCC(N)=O [OCT, 9-octadecenamide] | 4.31 µM | did not alter the Tm | 59.6128 |
